Data set [1] can be described thus: Zeta potential (zetasizer). The format is physicochemical. The settings on record: Malvern zetasizer; for Zeta Potential after Conjugation: after conjugation to gelatin-capped AgInS2 QDs; for Zeta Potential before Conjugation: unconjugated ADEP1 analogue or AgInS2 QDs alone. As to the method: (§1) A Spectro Xepos-05 energy-dispersive X-ray fluorescence (ED-XRF, Rigaku, TX, USA) instrument was used to determine the Ag, In, and S concentrations in the gelatin-capped AgInS2 QD powder. The core sizes of AgInS2 QDs and AgInS2-ADEP1 analogue conjugates were analyzed by the high-resolution transmission electron microscope (HR-TEM, JEOL, Tokyo, Japan). Fourier transform infrared spectroscopy (FTIR) spectra were recorded using a Perkin Elmer Spectrum Two UATR-FTIR spectrometer (PerkinElmer, Buckinghamshire, UK). The Hitachi F-2700FL spectrofluorophotometer (Hitachi, Tokyo, Japan) was used for the fluorescence measurements. Malvern system 4700 zetasizer (Malvern, Great Malvern, UK) together with a dynamic light scattering (DLS) technique were used to determine the zeta potential and particle hydrodynamic size of the AgInS2 QDs and AgInS2-ADEP1 analogue conjugates using.

Data set [2] relates to Staphylococcus aureus ATCC 25,923. The conditions noted are these: S. aureus; free ADEP1 analogues; cited from earlier work. From the text:
Table 4 MIC and MBC values of the AgInS2 QD-ADEP1 analogue conjugates and ADEP1 analogues. | column: S. aureus / MIC µM; S. aureus / MBC µM

Data set [3] deals with Pseudomonas aeruginosa ATCC 15,442. The settings on record: P. aeruginosa; free ADEP1 analogues; cited from earlier work. From the text:
Table 4 MIC and MBC values of the AgInS2 QD-ADEP1 analogue conjugates and ADEP1 analogues. | column: P. aeruginosa / MIC µM; P. aeruginosa / MBC µM

Data set [4] relates to Methicillin-resistant Staphylococcus aureus (MRSA) ATCC 43300. The settings on record: free ADEP1 analogues; cited from earlier work. From the text: Table 4 MIC and MBC values of the AgInS2 QD-ADEP1 analogue conjugates and ADEP1 analogues. | column: MRSA / MIC µM; MRSA / MBC µM
In data set [5] the test system is Escherichia coli ATCC 33,876. The settings on record: E. coli; free ADEP1 analogues; cited from earlier work. From the text: Table 4 MIC and MBC values of the AgInS2 QD-ADEP1 analogue conjugates and ADEP1 analogues. | column: E. coli / MIC µM; E. coli / MBC µM
The subject of data set [6] is Bacillus subtilis ATCC 11774. The conditions noted are these: B. subtilis; free ADEP1 analogues; cited from earlier work. From the text: Table 4 MIC and MBC values of the AgInS2 QD-ADEP1 analogue conjugates and ADEP1 analogues. | column: B. subtilis / MIC µM; B. subtilis / MBC µM
Data set [7] can be described thus: Hydrodynamic size by dynamic light scattering (DLS). The format is physicochemical. The settings on record: AgInS2 QDs alone or after conjugation with the named ADEP1 analogue. The method, then: as §1
Data set [8] has as its system Escherichia coli ATCC 33,876. Description: Broth microdilution susceptibility assay (MIC) with plating on agar (MBC). It counts as cell-based. The settings on record: ATCC33, E. coli, overnight 37 °C, conjugate concentration as loaded ADEP1 analogue. From the text: (§2) ADEP1 analogues (SC005-8) were synthesized in-house, as described by Cobongela et al., [11]. 1-Ethyl-3-(3-dimethylaminopropyl) carbodiimide (EDC), […] (sulfo-NHS), dimethyl sulfoxide (DMSO), thioglycolic acid (TGA), silver nitrate (AgNO3), sodium sulfide (Na2S·xH2O), gelatin, Dulbecco’s Modified Eagle Medium (DMEM), phosphate, trypsin, penicillin-streptomycin, fetal bovine serum (FBS), 3-(4,5-dimethylthiazol-2-yl)-5-(3-carboxymethoxyphenyl)-2-(4-sulfophenyl)-2H-tetrazolium (MTS dye), and trypan blue stain dye were all purchased from Sigma (St Louis, MO, USA). Bacillus subtilis American Type Culture Collection (ATCC) 11774, Staphylococcus aureus ATCC 25,923 and Methicillin-resistant Staphylococcus aureus (MRSA) ATCC 43300, and two Gram-negative (Escherichia coli ATCC 33,876 and Pseudomonas aeruginosa ATCC 15,442 were purchased from ATCC (Manassas, VA, USA). Human embryonic kidney 293 (HEK-293) cells were purchased from Cellonex (Randburg, Gauteng Province, South Africa).
(§3) The MIC and MBC of the AgInS2-ADEP1 analogue conjugates against B. subtilis, S. aureus, MRSA, P. aeruginosa and E. coli was determined using the broth microdilution susceptibility assay, following a previously described protocol. Briefly, overnight-grown bacterial cultures were adjusted to approximately 1.5 × 10^8 CFU/mL in a sterile Luria–Bertani broth. The concentration of ADEP1 on AgInS2-ADEP1 analogue conjugates was calculated based on the ADEP1 analogues calibration curve. AgInS2-ADEP1 analogue conjugates and ADEP1 analogues were diluted via 2-fold serial dilution with broth containing a final concentration range of 0.8–100 µM and 15.6–2000 µM, respectively. Gentamicin (concentration range between 0.007 and 6.7 mM) was used as a positive control for B. subtilis, S. aureus, MRSA, and P. aeruginosa, while ampicillin (concentration range between 0.18 and 6.7 mM) was used as a positive control for E. coli, and 5% DMSO was used as a negative control. The 96-well plates were then incubated overnight at 37 °C. […] The MBC was determined as the lowest concentration resulting in complete […].

The subject of data set [9] is Methicillin-resistant Staphylococcus aureus (MRSA) ATCC 43300. The data set is described as above. It counts as cell-based. The conditions noted are these: overnight 37 °C, conjugate concentration as loaded ADEP1 analogue.
Excerpt: as §2, §3

The subject of data set [10] is Bacillus subtilis ATCC 11774. The data set is described as above. The format is cell-based. The conditions noted are these: ATCC11774, B. subtilis, overnight 37 °C, conjugate concentration as loaded ADEP1 analogue.
Excerpt: as §2, §3

For data set [11], the system named is Staphylococcus aureus ATCC 25,923. The description is as above. It counts as cell-based. The settings on record: ATCC25, S. aureus, overnight 37 °C, conjugate concentration as loaded ADEP1 analogue.
Excerpt: as §2, §3

Data set [12] deals with Pseudomonas aeruginosa ATCC 15,442. Described as above. It counts as cell-based. The settings on record: ATCC15, P. aeruginosa, overnight 37 °C, conjugate concentration as loaded ADEP1 analogue.
Excerpt: as §2, §3

Where [13] appears, read: Luria-Bertani broth, ~1.5 × 10^8 CFU/mL.
[14] abbreviates: MIC wells plated on Luria-Bertani agar.

We go through six compounds from paper PMC10886425, “Antibacterial Activity and Cytotoxicity Screening of Acyldepsipeptide-1 Analogues Conjugated to Silver/Indium/Sulphide Quantum Dots” (Antibiotics, 2024).

In brackets after ≈: the same amount, converted by molar mass. Where two headings read alike, the source gives them in different places.

As to “Palmitic acid-FCPAAPC; D-form amino acids (disulfide) [SC005, Disulphide bond cyclized ADEP1 analogue, Palmitic acid-FCPAAPC, D-form amino acids]”, the “Zeta Potential after Conjugation” value in [1] is 1.46 ± 0.02 mV. In data set [1], the “Zeta Potential before Conjugation” value is recorded as −7.2 ± 1.6 mV. Besides, the MBC was 125 µM in [2]; 250 µM in data set [3]; 250 µM in [4]; 750 µM in data set [5]; 125 µM in [6]. Also, the MIC is recorded as 63 µM in data set [2]; 125 µM in data set [3]; 125 µM in data set [4]; 500 µM in data set [5]; 125 µM in data set [6]. For the same compound, in data set [7], the “Hydrodynamic Diameter” value is recorded as 49.6 ± 1.6 nm.

For `CC1(C)S[C@@H]2[C@H](NC(=O)[C@H](N)c3ccccc3)C(=O)N2[C@H]1C(=O)O` [Ampicillin], it took 2860 µM (≈ 1000 µg/mL) to inhibit growth in data set [8] (setting [13]) (MIC). The compound also displayed an MBC in [8] (setting [14]) of 5720 µM (≈ 2000 µg/mL).

“Palmitic acid-FCPAAPC; L-form amino acids (disulfide) [SC008, Disulphide bond cyclized ADEP1 analogue, Palmitic acid-FCPAAPC, L-form amino acids]”: the “Zeta Potential after Conjugation” value in [1] was 1.39 ± 0.09 mV. Besides, in [1], the “Zeta Potential before Conjugation” value is reported as −6.9 ± 1.5 mV. Also, the MBC in data set [2] is listed as 125 µM; in [3], 250 µM; in data set [4] it was 500 µM; in data set [5], 750 µM; in [6] it was 125 µM. The MIC is 63 µM in data set [2]; 125 µM in data set [3]; 250 µM in data set [4]; 500 µM in data set [5]; 125 µM in [6]. Moreover, in data set [7], the “Hydrodynamic Diameter” value is recorded as 50.3 ± 1.6 nm.

With “Adamantane-FCPAAPC; D-form amino acids (disulfide) [SC006, Disulphide bond cyclized ADEP1 analogue, Adamantane-FCPAAPC, D-form amino acids]”, the “Zeta Potential after Conjugation” value in data set [1] came to 1.38 ± 0.06 mV. In data set [1], the “Zeta Potential before Conjugation” value was −3.8 ± 1.1 mV. For the same compound, the MBC was 125 µM in data set [2]; 250 µM in [3]; 250 µM in data set [4]; 750 µM in data set [5]; 250 µM in data set [6]. Besides, the MIC is recorded as 63 µM in data set [2]; 125 µM in data set [3]; 250 µM in data set [4]; 500 µM in [5]; 250 µM in data set [6]. The “Hydrodynamic Diameter” value in data set [7] was found to be 44.2 ± 1.4 nm.

Regarding `CNC(C)C1CCC(N)C(OC2C(N)CC(N)C(OC3OCC(C)(O)C(NC)C3O)C2O)O1` (centres unmarked) [Gentamicin], the MIC in data set [9] (setting [13]) amounted to 26.2 µM (≈ 12.5 µg/mL); in data set [10] (Luria-Bertani broth, ~1.5 × 10^8 CFU/mL, no visible growth), 26.1 µM (≈ 12.5 µg/mL); in data set [11] (setting [13]) it was 0.5 µM (≈ 0.239 µg/mL); in data set [12] (setting [13]) it was 419 µM (≈ 200 µg/mL). Also, the MBC stood at 52.4 µM (≈ 25 µg/mL) in data set [9] (setting [14]), 52.3 µM (≈ 25 µg/mL) in data set [10] (setting [14]), 1 µM (≈ 0.478 µg/mL) in data set [11] (setting [14]) and 838 µM (≈ 400 µg/mL) in data set [12] (setting [14]).

As to “Adamantane-FCPAAPC; L-form amino acids (disulfide) [SC007, Disulphide bond cyclized ADEP1 analogue, Adamantane-FCPAAPC, L-form amino acids]”, the “Zeta Potential after Conjugation” value in data set [1] is recorded as 1.00 ± 0.15 mV. In [1], the “Zeta Potential before Conjugation” value was −3.9 ± 0.8 mV. The MBC in data set [2] was 125 µM; in [3], 250 µM; in [4] it was 500 µM; in data set [5] it was 750 µM; in data set [6], 125 µM. The MIC in [2] was 63 µM; in [3], 125 µM; in data set [4], 250 µM; in data set [5], 500 µM; in [6], 125 µM. Moreover, the “Hydrodynamic Diameter” value in data set [7] is 44.4 ± 0.7 nm.
